# Data from patent US8618101B2, “N-((1R,2S,5R)-5-(tert-butylamino)-2-((S)-3-(7-tert-butylpyrazolo[1,5-a][1,3,5]triazin-4-ylamino)-2-oxopyrrolidin-1-yl)cyclohexyl)acetamide, a dual modulator of chemokine receptor activity, crystalline forms and processes” (Bristol-Myers Squibb Company, priority 2009, dated 2013).
# Like-named read-outs stand apart in the source and are kept apart here.
# How the values were obtained:
# [1] = target: T1, CCR-5 (Homo sapiens, UniProt P51681); assay: T cell CCR-5 binding assay, 125I-MIP-1β tracer; details: human peripheral T cells
# T1 construct: human peripheral T cells was used as a source of CCR-5; endogenous in cells; host or cells: human peripheral T cells from donors pre-screened for high CCR-5 expression
# T1 sequence (P51681 whole entry): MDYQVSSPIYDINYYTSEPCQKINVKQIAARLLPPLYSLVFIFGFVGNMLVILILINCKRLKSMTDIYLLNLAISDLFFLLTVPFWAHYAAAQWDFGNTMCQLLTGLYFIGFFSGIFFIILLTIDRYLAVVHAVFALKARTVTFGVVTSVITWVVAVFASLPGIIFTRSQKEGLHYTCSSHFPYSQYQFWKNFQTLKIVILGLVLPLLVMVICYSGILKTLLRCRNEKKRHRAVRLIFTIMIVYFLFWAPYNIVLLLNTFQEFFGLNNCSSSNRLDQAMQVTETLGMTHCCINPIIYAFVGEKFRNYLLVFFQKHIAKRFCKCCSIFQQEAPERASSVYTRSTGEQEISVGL
# From the text: The procedure used for T cell CCR-5 binding assay was similar to those for hPBMC CCR-2 binding assay except that human peripheral T cells was used as a source of CCR-5 (see below) and ^125I-MIP-1β as a tracer (Amersham).
# Therefore, blood donors were pre-screened for high T-cell expression of CCR-5. hPBMCs were first isolated from human whole blood by standard protocol with Ficoll-Hypaque. Flow cytometric analysis was then used to measure CCR-5 expression on T cells following staining with anti-CCR-5 antibody plus anti-CD4 antibody or anti-CD8 antibody. Those blood donors in which >5% peripheral T cells (CD4^+ and CD8^+) express CCR-5 were requested to provide blood again for isolation of PBMCs and, subsequently, of T cells using a standard E-rosetting technique which relies on the unique ability of T cells to bind to sheep red blood cells (RBCs).
# [2] = Parallel Artificial Membrane Permeability Assay (PAMPA); type: in vitro ADME; details: pH 7.4
# From the text: The Parallel Artificial Membrane Permeability Assay (PAMPA) consists of a specially formulated lecithin-based lipid combination referred to as the gastrointestinal tract (GIT) lipid. The GIT lipid is used to form a membrane in a sandwich plate assembly similar to that used in the Caco-2 assays. The GIT lipid closely resembles in vivo membrane composition and performance as measured by standard compounds that are known to be passively absorbed in humans. […] The rate of passage of compounds through the PAMPA membrane is used to determine a permeability coefficient (Pc), which can be related to the in vivo passive permeability of the compound.
# The permeability coefficient (Pc) of a particular compound is examined in a pH-dependent setting with apical and basolateral pH of 7.4. All experiments are conducted in triplicate determinations.
# The PAMPA assay plate (donor side and acceptor side) was combined and allowed to incubate at room temperature for 4 hours. […] The donor, acceptor, reference, and blank plates were read in the SPECTRAMAX® UV plate reader. Data was captured by the pION software, which analyzes the spectra and generates Pc values.
# [3] = target: T2, human CCR-2 (Homo sapiens, UniProt P41597); assay: 125I-mouse MCP-1 binding to human CCR-2-expressing cells (hPBMCs); parameters: hPBMCs were isolated from human leukopak; host or cells: human peripheral blood mononuclear cells; details: read-out: in vitro IC50 for inhibition of 125I-mouse MCP-1 binding to human CCR-2-expressing cells (hPBMCs)
# T2 sequence (P41597 1-360 isoform P41597-2): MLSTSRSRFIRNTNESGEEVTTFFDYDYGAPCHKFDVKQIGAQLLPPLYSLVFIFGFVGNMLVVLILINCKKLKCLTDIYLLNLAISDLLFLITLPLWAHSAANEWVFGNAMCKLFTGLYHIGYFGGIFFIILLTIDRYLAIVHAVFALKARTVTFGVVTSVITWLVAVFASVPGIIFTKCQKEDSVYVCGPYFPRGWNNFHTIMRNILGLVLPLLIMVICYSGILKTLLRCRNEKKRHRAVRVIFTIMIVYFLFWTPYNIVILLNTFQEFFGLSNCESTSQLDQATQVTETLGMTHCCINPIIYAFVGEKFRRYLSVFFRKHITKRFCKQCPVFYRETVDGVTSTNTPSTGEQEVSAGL
# [4] = target: T2, human CCR-2; assay: CCR-2 calcium mobilization, THP-1 cells; type: cell-based; details: MCP-1 10 nM, read-out: CCR-2 Ca2+ Flux IC50
# Procedure: All conditions were tested in duplicate.
# [5] = target: T3, CCR-2 (Homo sapiens, UniProt P41597); assay: CCR-2 GTP-γS exchange, HT1080 membranes; type: biochemical; details: 1 nM MCP-1
# T3 sequence (P41597 whole entry): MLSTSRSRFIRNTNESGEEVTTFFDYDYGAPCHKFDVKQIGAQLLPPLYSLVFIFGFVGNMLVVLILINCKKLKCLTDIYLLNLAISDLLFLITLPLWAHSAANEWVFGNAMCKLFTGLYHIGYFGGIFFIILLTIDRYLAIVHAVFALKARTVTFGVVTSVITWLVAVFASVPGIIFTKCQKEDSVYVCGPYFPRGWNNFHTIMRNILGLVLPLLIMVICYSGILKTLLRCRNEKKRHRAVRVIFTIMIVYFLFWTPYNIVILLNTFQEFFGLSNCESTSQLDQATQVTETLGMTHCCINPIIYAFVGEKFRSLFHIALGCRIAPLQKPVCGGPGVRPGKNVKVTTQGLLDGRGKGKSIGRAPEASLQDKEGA
# Procedure: Each reaction (200 μL) contained 20 mM Na-HEPES, 10 mM MgCl2, 50 mM NaCl, 0.1% BSA (Sigma), 1% DMSO, and 10 μM GDP (pH 7.4). […] Reactions were incubated for 90 minutes hour at room temperature and [^35S]-GTPγS/Gαi complexes were collected on a Millipore MAFC 96 well filter plate. […] Data were analyzed using the ligand binding software from Graphpad Prism 4.
# [6] = Plasma levels of Example 1 and mouse MCP-1 in the 48-hour TG peritonitis model; type: in vivo; details: mouse, read-out: Concentration of free Example 1 in plasma (nM) (fold IC90 CCR-2 binding)
# Procedure: For the 48-hour TG peritonitis study, Example 1 was dosed twice a day with the first dose one hour prior to TG injection. Total peritoneal cell counts were obtained on isolated cells by a cell counter. Cytospins were performed to determine differential leukocyte counts. The cells were stained for 3 minutes with Wright-Giemsa Stain (Sigma-Aldrich) and then rinsed with deionized water for 5 minutes. Differential counts were calculated based on a total of 200 cells counted per sample. Blood was also collected from the retro-orbital sinus at the end of each study in EDTA for determination of drug concentration.
# (§1) The caveat for this estimation is that only CCR-2 and its major ligand MCP-1 were taken into consideration. The receptor occupancy of a ligand in the presence of a competitive inhibitor is defined by the Gaddum equation: […]
# [7] = target: T1, CCR-5; assay: CCR-5 GTP-γS exchange, CCR-5/HT1080 membranes; type: biochemical; details: MIP-1α/LD78β ligand
# From the text: A similar procedure to the CCR-2 GTP-γS exchange procedure set forth above was adopted except that MIP-1α/LD78β was the ligand and the cell line was CCR-5/HT1080. MIP-1α/LD78β was used as the CCR-5 ligand because it provided a bigger signal to noise ratio than MIP-1β.
# [8] = target: T3, CCR-2; assay: In vivo receptor occupancy in blood of hCCR-2 KI mice (Gaddum equation); details: for % Example 1 bound CCR-2 / % free CCR-2 / % mouse MCP-1 bound CCR-2: 48 h
# From the text: as §1
# Since Example 1 is a competitive inhibitor of MCP-1 binding to CCR-2, the amounts of both mouse MCP-1/CCR-2 receptor complex and Example 1/CCR-2 receptor complex can be determined using the serum levels of both mouse MCP-1 and protein-unbound Example 1 in plasma. […] The fraction of mouse MCP-1/CCR-2 receptor complexes is determined using the form of the equation described above. To determine the fraction of Example 1/CCR-2 complexes the equation is re-defined as:
# [formula] Finally, the amount of CCR-2 free is determined from: [CCR-2]total=[CCR-2]free+[mouse MCP-1/CCR-2]+[Example 1/CCR-2]
# [9] = 200 mg/kg (different study), oral BID
smiles,measurement,setting,value
"CC(=O)N[C@@H]1C[C@H](NC(C)(C)C)CC[C@@H]1N1CC[C@H](Nc2ncnc3cc(C(C)(C)C)nn23)C1=O [Example 1, N-((1R,2 S,5R)-5-(tert-Butylamino)-2-((S)-3-(7-tert-butylpyrazolo[1,5-a][1,3,5]triazin-4-ylamino)-2-oxopyrrolidin-1-yl)cyclohexyl)acetamide]",IC50,[1],3.6 ± 1.8 nM
same,"Papp at 4 h, 100 µM",[2],33.6 ×10⁻⁶ cm/s
same,IC50,[3],5.8 ± 2.3 nM
same,IC50,[4],2.9 ± 1.5 nM
same,IC50,[5],3.5 ± 1.9 nM
same,concentration at 48 h,"[6]; hCCR-2 KI, oral, 10 mg/kg",1.9 nM
same,concentration at 48 h,"[6]; hCCR-2 KI, oral, 50 mg/kg",16.6 nM
same,concentration at 48 h,"[6]; hCCR-2 KI, oral, 200 mg/kg",136 nM
same,concentration at 48 h,"[6]; 160 mg/kg oral BID, 48 h, hCCR-2 KI mice",62 nM
same,IC50,[7],6.1 ± 1.2 nM
same,% Example 1 bound CCR-2,[8]; 10 mg/kg oral BID,48.15%
same,% free CCR-2,[8]; 10 mg/kg oral BID,50.68%
same,% mouse MCP-1 bound CCR-2,[8]; 10 mg/kg oral BID,1.17%
same,% Example 1 bound CCR-2,[8]; 50 mg/kg oral BID,88.74%
same,% free CCR-2,[8]; 50 mg/kg oral BID,10.69%
same,% mouse MCP-1 bound CCR-2,[8]; 50 mg/kg oral BID,0.56%
same,% Example 1 bound CCR-2,[8]; 160 mg/kg oral BID,96.72%
same,% free CCR-2,[8]; 160 mg/kg oral BID,3.12%
same,% mouse MCP-1 bound CCR-2,[8]; 160 mg/kg oral BID,0.16%
same,% Example 1 bound CCR-2,[8]; [9],98.45%
same,% free CCR-2,[8]; [9],1.44%
same,% mouse MCP-1 bound CCR-2,[8]; [9],0.11%
same,CCR-2 occupancy at maximal inhibition of monocyte/macrophage infiltration,[8]; hCCR-2 KI mouse TG peritonitis,98.5%
